This note sets out measurements from ChEMBL document CHEMBL1250451, “Mechanistic insights into a Ca2+-dependent family of alpha-mannosidases in a human gut symbiont” (Nat Chem Biol, 2010).

Calls of active or inactive are those of the source. The calls are words filed in the database; no cut-off is given here.

Assay type in all cases: protein assay
Experiment [1] addresses T1, Alpha-1,2-mannosidase (BT_3991) (Bacteroides thetaiotaomicron) (UniProt Q8A0N0).
T1 sequence (whole entry): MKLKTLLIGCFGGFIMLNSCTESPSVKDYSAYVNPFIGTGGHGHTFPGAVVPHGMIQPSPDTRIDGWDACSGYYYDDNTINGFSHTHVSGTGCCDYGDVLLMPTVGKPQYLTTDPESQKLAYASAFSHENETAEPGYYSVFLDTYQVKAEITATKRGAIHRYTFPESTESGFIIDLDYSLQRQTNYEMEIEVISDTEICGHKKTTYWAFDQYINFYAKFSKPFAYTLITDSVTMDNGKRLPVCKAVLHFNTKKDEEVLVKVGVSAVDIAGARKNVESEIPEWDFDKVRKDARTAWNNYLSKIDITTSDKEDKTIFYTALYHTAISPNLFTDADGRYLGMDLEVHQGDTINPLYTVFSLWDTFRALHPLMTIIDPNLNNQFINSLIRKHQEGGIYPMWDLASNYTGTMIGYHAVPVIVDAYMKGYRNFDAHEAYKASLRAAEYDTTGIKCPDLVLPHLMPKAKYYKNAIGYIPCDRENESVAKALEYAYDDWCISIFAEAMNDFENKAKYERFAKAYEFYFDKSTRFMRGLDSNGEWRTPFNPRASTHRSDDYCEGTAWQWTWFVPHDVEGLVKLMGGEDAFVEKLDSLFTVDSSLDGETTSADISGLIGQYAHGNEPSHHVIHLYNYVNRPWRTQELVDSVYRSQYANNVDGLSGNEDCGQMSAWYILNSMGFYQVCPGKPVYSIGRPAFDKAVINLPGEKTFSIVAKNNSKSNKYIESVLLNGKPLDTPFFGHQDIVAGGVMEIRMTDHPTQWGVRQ
Put plainly: Activity of Bacteroides thetaiotaomicron GH92 alpha-mannosidase GH92 alpha-mannosidase 3991 assessed as mannose release at 1 mM after 16 hrs by HPLC relative to untreated control after 16 hrs by HPLC.

For experiment [2], the target named is T2, Alpha-1,2-mannosidase (BT_3530) (Bacteroides thetaiotaomicron) (UniProt Q8A1X8).
T2 sequence (whole entry): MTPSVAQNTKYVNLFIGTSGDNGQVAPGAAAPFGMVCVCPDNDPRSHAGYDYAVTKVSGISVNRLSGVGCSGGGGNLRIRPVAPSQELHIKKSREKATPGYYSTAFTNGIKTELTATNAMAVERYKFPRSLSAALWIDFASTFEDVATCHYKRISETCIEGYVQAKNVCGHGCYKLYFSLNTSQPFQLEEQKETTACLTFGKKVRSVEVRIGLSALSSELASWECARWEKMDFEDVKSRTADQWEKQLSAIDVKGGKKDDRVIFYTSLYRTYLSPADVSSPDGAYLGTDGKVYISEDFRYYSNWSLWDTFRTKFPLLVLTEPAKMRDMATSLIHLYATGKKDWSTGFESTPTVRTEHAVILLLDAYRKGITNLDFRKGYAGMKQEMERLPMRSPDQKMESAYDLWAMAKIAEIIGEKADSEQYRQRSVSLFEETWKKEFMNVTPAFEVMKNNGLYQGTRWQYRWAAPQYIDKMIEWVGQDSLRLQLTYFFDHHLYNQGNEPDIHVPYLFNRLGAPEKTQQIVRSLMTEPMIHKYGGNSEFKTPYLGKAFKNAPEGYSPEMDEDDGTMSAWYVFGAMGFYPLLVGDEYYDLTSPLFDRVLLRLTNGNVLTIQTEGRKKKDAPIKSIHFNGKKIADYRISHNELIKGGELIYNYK
Briefly: Activity of Bacteroides thetaiotaomicron GH92 alpha-mannosidase GH92 alpha-mannosidase 3530 assessed as mannose release at 1 mM after 16 hrs by HPLC relative to untreated control after 16 hrs by HPLC.

Experiment [3] addresses T3, Alpha-1,2-mannosidase (BT_3858) (Bacteroides thetaiotaomicron) (UniProt Q8A113).
T3 sequence (whole entry): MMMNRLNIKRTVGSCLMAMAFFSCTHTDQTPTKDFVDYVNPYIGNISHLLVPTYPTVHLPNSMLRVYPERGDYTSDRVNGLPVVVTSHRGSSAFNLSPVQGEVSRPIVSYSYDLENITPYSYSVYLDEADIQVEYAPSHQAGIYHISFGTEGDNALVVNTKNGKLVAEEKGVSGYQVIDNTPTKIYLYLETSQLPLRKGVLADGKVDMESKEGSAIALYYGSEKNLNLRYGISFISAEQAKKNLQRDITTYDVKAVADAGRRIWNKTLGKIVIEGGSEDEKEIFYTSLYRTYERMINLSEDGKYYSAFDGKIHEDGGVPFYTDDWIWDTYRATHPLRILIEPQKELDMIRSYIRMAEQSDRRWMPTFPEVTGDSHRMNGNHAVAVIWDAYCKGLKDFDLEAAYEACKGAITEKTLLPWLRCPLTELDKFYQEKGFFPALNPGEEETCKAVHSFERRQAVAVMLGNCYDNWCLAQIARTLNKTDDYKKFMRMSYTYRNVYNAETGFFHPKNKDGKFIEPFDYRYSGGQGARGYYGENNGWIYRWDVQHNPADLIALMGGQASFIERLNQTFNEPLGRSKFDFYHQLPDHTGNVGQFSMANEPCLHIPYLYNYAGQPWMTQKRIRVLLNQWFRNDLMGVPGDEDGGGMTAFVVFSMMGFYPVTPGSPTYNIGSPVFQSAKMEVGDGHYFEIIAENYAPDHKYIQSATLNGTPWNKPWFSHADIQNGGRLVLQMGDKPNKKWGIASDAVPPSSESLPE
Put plainly: Activity of Bacteroides thetaiotaomicron GH92 alpha-mannosidase GH92 alpha-mannosidase 3858 assessed as mannose release at 1 mM after 16 hrs by HPLC relative to untreated control after 16 hrs by HPLC.

In the case of `OC[C@H]1O[C@H](O[C@H]2[C@H](O)[C@H](O)[C@@H](O)O[C@@H]2CO)[C@@H](O)[C@@H](O)[C@@H]1O`, the outcome in experiment [1] was inactive. Besides, the Activity came out at 100% in experiment [2] and 0.1% in experiment [3].
For `OC[C@H]1O[C@H](O[C@H]2[C@@H](O)[C@H](O)[C@@H](CO)O[C@@H]2O)[C@@H](O)[C@@H](O)[C@@H]1O` the same measures were 0.8%, “inactive” and 0.045%.
For `OC[C@H]1O[C@H](OC[C@H]2O[C@H](O)[C@@H](O)[C@@H](O)[C@@H]2O)[C@@H](O)[C@@H](O)[C@@H]1O` the same measures were 1.51%, “inactive” and 0.0025%.
In the case of `OC[C@H]1O[C@H](O[C@@H]2[C@H](O)[C@@H](O)O[C@H](CO)[C@H]2O)[C@@H](O)[C@@H](O)[C@@H]1O`, in experiment [2], the Activity is 58%.
